Assay results reported in article PMC12670405, “Second-Generation AURKA-Targeting PROTACs: Structural Optimization toward in Vivo Degradation in Neuroblastoma” (Journal of Medicinal Chemistry, 2025).

How the values were obtained:
[1] = molecular target: T1, ABL1(F317I)-phosphorylated (Homo sapiens, UniProt P00519, F317I); test: KINOMEscan scanMAX; assay type: binding; conditions: read-out: Percent Control
T1 construct: purchased Eurofins Discovery (DiscoverX KINOMEscan scanMAX)
Description: (§1) The kinome-wide binding assay was performed by Eurofins Discovery using the scanMAX screening platform. More information can be found on the Eurofins Discovery Web site.

BUB1 = molecular target: T2, BUB1 (Homo sapiens, UniProt O43683); test: KINOMEscan scanMAX; assay type: binding; conditions: read-out: Percent Control
T2 construct: purchased Eurofins Discovery (DiscoverX KINOMEscan scanMAX)
T2 sequence (O43683 whole entry): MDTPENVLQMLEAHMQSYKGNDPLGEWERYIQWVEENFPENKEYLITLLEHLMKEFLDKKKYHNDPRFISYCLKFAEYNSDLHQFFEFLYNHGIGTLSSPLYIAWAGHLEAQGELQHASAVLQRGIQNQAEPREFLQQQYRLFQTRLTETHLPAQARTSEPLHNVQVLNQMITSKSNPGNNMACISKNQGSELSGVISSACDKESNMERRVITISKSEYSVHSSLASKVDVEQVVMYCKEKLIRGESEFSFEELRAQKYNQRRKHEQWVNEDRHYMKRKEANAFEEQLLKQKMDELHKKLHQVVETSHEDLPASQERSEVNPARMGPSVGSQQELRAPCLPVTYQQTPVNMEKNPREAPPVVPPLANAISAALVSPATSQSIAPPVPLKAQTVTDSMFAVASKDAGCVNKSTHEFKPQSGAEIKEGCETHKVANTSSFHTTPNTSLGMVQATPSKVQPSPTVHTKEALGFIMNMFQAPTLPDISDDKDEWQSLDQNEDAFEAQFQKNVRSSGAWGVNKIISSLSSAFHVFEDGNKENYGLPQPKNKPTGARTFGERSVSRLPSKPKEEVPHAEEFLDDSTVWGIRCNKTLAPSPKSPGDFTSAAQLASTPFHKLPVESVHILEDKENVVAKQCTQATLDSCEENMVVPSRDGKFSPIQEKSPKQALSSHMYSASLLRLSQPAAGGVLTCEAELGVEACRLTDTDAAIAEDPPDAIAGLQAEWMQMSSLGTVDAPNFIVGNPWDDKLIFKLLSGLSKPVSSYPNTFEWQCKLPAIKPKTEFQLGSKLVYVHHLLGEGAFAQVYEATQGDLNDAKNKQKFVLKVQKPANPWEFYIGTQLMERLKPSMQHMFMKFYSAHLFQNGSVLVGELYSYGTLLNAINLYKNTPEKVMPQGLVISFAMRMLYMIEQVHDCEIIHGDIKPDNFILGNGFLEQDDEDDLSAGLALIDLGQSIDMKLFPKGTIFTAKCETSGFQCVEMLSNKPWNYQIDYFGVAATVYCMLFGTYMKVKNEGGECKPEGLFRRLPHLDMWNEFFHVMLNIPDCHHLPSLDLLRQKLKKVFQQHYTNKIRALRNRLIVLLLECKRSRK
Description: as §1

CSNK1D = molecular target: T3, CSNK1D (Homo sapiens, UniProt P48730); test: KINOMEscan scanMAX; assay type: binding; conditions: read-out: Percent Control
T3 construct: purchased Eurofins Discovery (DiscoverX KINOMEscan scanMAX)
T3 sequence (P48730 whole entry): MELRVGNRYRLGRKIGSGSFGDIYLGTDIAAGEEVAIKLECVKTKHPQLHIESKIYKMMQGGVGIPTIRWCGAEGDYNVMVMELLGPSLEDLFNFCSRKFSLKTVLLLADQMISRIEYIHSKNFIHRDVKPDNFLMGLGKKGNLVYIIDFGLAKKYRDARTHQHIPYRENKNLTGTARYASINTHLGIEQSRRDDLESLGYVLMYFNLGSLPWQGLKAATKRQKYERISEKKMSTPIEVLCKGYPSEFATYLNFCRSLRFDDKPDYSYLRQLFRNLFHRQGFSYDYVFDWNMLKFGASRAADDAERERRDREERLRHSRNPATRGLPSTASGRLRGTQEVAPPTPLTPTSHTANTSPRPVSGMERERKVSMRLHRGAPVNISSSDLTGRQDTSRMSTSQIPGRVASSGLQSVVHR
Description: as §1

DYRK1A = molecular target: T4, DYRK1A (Homo sapiens, UniProt Q13627); test: KINOMEscan scanMAX; assay type: binding; conditions: read-out: Percent Control
T4 construct: purchased Eurofins Discovery (DiscoverX KINOMEscan scanMAX)
Description: as §1

HUNK = molecular target: T5, HUNK (Homo sapiens, UniProt P57058); test: KINOMEscan scanMAX; assay type: binding; conditions: read-out: Percent Control
T5 construct: purchased Eurofins Discovery (DiscoverX KINOMEscan scanMAX)
Description: as §1

KIT = molecular target: T6, KIT (Homo sapiens, UniProt P10721); test: KINOMEscan scanMAX; assay type: binding; conditions: read-out: Percent Control
T6 construct: purchased Eurofins Discovery (DiscoverX KINOMEscan scanMAX)
T6 sequence (P10721 26-976): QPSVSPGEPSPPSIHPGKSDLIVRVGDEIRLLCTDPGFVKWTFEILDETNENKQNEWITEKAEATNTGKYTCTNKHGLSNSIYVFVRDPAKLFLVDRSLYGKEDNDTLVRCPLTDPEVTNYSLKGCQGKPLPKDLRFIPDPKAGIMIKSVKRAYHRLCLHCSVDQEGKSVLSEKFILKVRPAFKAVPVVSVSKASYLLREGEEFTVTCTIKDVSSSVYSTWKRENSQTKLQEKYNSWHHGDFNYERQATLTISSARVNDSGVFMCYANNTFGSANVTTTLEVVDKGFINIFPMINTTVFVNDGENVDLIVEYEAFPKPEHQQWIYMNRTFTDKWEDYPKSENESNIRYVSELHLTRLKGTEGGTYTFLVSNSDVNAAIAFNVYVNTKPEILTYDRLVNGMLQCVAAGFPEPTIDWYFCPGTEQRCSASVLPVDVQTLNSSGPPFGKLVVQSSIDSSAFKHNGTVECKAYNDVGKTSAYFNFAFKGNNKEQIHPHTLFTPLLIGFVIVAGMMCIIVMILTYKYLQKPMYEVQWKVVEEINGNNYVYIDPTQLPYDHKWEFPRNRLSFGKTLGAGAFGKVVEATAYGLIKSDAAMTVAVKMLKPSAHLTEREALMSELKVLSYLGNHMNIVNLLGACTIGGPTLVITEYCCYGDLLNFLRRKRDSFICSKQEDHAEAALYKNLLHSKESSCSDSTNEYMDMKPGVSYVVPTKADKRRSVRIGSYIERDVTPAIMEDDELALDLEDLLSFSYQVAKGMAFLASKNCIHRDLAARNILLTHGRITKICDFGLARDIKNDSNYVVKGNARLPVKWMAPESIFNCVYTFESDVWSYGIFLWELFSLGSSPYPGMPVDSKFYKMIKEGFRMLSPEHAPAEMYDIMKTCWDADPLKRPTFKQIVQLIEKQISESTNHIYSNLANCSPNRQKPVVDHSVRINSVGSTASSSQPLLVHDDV
Description: as §1

KIT(V559D,V654A) = molecular target: T7, KIT(V559D,V654A) (Homo sapiens, UniProt P10721, V559D/V654A); test: KINOMEscan scanMAX; assay type: binding; conditions: read-out: Percent Control
T7 construct: purchased Eurofins Discovery (DiscoverX KINOMEscan scanMAX)
T7 sequence (P10721 26-976 V559D/V654A): as the sequence (P10721 26-976) above, with V534D, V629A counted along it
Description: as §1

MELK = molecular target: T8, MELK (Homo sapiens, UniProt Q14680); test: KINOMEscan scanMAX; assay type: binding; conditions: read-out: Percent Control
T8 construct: purchased Eurofins Discovery (DiscoverX KINOMEscan scanMAX)
Description: as §1

MERTK = molecular target: T9, MERTK (Homo sapiens, UniProt Q12866); test: KINOMEscan scanMAX; assay type: binding; conditions: read-out: Percent Control
T9 construct: purchased Eurofins Discovery (DiscoverX KINOMEscan scanMAX)
Description: as §1

PIK3CD = molecular target: T10, PIK3CD (Homo sapiens, UniProt O00329); test: KINOMEscan scanMAX; assay type: binding; conditions: read-out: Percent Control
T10 construct: purchased Eurofins Discovery (DiscoverX KINOMEscan scanMAX)
T10 sequence (O00329 whole entry): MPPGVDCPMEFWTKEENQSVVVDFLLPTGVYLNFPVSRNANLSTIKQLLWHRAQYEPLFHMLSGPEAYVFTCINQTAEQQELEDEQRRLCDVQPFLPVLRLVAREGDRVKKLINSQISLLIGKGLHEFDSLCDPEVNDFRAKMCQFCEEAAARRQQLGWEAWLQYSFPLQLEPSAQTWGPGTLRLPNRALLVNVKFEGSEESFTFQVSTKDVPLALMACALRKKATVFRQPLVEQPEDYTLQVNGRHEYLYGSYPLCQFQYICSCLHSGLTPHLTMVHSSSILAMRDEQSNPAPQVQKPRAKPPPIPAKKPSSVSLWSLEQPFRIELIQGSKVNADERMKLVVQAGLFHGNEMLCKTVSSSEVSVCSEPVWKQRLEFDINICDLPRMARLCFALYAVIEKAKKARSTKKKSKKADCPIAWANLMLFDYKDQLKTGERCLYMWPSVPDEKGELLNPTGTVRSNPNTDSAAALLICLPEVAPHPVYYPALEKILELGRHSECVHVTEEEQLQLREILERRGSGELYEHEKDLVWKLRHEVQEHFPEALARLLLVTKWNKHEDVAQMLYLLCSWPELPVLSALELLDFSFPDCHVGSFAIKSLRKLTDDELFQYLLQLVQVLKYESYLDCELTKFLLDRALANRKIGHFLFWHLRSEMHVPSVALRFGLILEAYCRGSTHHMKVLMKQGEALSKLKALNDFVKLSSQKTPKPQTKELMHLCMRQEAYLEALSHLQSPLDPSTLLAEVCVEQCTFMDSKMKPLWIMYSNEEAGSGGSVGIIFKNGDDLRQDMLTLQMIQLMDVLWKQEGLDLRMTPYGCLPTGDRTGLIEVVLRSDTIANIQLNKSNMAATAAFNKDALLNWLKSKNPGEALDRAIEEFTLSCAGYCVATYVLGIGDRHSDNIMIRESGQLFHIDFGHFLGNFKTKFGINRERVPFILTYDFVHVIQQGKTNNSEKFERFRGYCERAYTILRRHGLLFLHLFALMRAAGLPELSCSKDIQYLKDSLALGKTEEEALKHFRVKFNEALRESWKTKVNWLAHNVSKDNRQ
Description: as §1

PKAC-alpha = molecular target: T11, PKAC-alpha (Homo sapiens, UniProt P17612); test: KINOMEscan scanMAX; assay type: binding; conditions: read-out: Percent Control
T11 construct: purchased Eurofins Discovery (DiscoverX KINOMEscan scanMAX)
Description: as §1

[2] = molecular target: T12, RSK3(Kin.Dom.1-N-terminal) (Homo sapiens, UniProt Q15349); test: KINOMEscan scanMAX; assay type: binding; conditions: read-out: Percent Control
T12 construct: RSK3(Kin.Dom.1-N-terminal); purchased Eurofins Discovery (DiscoverX KINOMEscan scanMAX)
T12 sequence (Q15349 1-388 limits assumed): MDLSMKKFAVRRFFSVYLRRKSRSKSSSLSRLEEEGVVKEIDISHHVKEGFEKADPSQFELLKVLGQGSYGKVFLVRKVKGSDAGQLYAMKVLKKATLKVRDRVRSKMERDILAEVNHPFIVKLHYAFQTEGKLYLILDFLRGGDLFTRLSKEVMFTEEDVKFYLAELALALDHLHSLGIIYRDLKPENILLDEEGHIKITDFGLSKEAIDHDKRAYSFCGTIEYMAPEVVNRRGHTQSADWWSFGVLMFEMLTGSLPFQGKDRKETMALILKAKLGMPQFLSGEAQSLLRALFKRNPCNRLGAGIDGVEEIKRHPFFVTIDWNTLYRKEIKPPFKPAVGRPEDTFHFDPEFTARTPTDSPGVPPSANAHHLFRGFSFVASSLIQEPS
Description: as §1

YES = molecular target: T13, YES (Homo sapiens, UniProt P07947); test: KINOMEscan scanMAX; assay type: binding; conditions: read-out: Percent Control
T13 construct: purchased Eurofins Discovery (DiscoverX KINOMEscan scanMAX)
Description: as §1

IMR-32 proteome = test: LC-MS/MS proteome profiling; assay type: cell-based, Homo sapiens
Description: IMR-32 cells were seeded in T-25 flasks at a density of 1.7 million cells/flask and treated the next day with DMSO (negative control), SK5527 (500 nM) or MK-5108 (500 nM) for 3 or 24 h (data for MK-5108 not discussed in this manuscript). Cell pellets were harvested at the respective time points, lysed, and the concentration of the obtained protein lysates measured as previously described. Details on further sample preparation, LC–MS/MS, and data analysis can be found in the Supporting Information. The LC–MS/MS proteomics data have been deposited to the ProteomeXchange Consortium via the PRIDE partner repository with the data set identifier PXD061539.
Supplementary Methods 1 – LC-MS/MS proteomics
From each sample, 100 µg of protein was isolated, the volumes were equalized with water and SDS and TEAB were added to a final concentration of 5% and 50 mM, respectively. Proteins were reduced and alkylated by addition of 10 mM Tris(2-carboxyethyl)phosphine hydrochloride and 40 mM chloroacetamide and incubation for 30 minutes at 25°C in the dark. Phosphoric acid was added to a final concentration of 1.2%, and samples were subsequently diluted 7-fold with binding buffer containing 90% methanol in 100 mM TEAB, pH 7.55. The samples were loaded on the 96-well S-Trap™ plate (Protifi), placed on top of a deepwell plate, and centrifuged for 2 min at 1,500 x g at RT. […]

T1 sequence (P00519 whole entry F317I): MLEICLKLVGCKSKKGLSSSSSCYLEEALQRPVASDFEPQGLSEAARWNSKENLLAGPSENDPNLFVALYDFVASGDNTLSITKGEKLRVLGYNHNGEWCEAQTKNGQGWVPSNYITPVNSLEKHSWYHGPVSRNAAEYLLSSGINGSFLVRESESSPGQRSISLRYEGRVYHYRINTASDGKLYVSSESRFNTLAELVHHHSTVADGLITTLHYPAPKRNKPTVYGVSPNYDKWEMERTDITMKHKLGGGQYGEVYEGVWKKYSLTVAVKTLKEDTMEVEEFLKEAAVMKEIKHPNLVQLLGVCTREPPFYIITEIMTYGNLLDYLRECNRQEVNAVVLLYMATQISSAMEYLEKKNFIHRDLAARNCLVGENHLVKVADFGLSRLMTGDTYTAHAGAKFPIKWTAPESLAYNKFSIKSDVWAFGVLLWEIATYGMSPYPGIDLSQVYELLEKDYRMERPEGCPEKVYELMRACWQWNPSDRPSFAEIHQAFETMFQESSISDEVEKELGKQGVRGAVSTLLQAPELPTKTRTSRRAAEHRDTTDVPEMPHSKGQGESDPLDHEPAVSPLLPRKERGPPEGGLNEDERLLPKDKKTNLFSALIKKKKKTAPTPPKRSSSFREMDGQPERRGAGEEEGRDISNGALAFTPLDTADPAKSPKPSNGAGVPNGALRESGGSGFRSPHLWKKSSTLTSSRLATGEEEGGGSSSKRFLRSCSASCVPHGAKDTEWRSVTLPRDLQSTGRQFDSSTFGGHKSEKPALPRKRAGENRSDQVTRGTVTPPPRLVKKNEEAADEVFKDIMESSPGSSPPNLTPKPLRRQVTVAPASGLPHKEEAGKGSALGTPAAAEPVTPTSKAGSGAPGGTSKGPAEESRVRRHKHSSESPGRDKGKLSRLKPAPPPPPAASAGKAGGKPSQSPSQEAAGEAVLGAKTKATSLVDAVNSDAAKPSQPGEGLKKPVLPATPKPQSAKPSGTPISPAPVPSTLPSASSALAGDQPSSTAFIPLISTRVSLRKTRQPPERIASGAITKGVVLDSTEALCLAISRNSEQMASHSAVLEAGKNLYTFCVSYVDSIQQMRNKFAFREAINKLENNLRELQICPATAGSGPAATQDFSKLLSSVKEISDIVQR

Cc1cc(Nc2ccc(F)c(CC3(C(=O)N4CCC(F)(CN5CCN(c6ccc(N7CCC(=O)NC7=O)cn6)CC5)CC4)CCN(Cc4cccc(Cl)c4F)CC3)n2)n[nH]1 [SK5527]
remaining binding at 0.1 µM ([1]; 100 nM): 95%
remaining binding at 1 µM ([1]; 1000 nM): 69%
remaining binding at 0.1 µM (BUB1; 100 nM): 100%
remaining binding at 1 µM (BUB1; 1000 nM): 100%
remaining binding at 0.1 µM (CSNK1D; 100 nM): 98%
remaining binding at 1 µM (CSNK1D; 1000 nM): 91%
remaining binding at 0.1 µM (DYRK1A; 100 nM): 79%
remaining binding at 1 µM (DYRK1A; 1000 nM): 80%
remaining binding at 0.1 µM (HUNK; 100 nM): 93%
remaining binding at 1 µM (HUNK; 1000 nM): 100%
remaining binding at 0.1 µM (KIT; 100 nM): 100%
remaining binding at 1 µM (KIT; 1000 nM): 61%
remaining binding at 0.1 µM (KIT(V559D,V654A); 100 nM): 100%
remaining binding at 1 µM (KIT(V559D,V654A); 1000 nM): 97%
remaining binding at 0.1 µM (MELK; 100 nM): 99%
remaining binding at 1 µM (MELK; 1000 nM): 87%
remaining binding at 0.1 µM (MERTK; 100 nM): 90%
remaining binding at 1 µM (MERTK; 1000 nM): 54%
remaining binding at 0.1 µM (PIK3CD; 100 nM): 69%
remaining binding at 1 µM (PIK3CD; 1000 nM): 87%
remaining binding at 0.1 µM (PKAC-alpha; 100 nM): 83%
remaining binding at 1 µM (PKAC-alpha; 1000 nM): 86%
remaining binding at 0.1 µM ([2]; 100 nM): 100%
remaining binding at 1 µM ([2]; 1000 nM): 96%
remaining binding at 0.1 µM (YES; 100 nM): 73%
remaining binding at 1 µM (YES; 1000 nM): 70%
CRBN neosubstrates (GSPT1, CSNK1A1, ZFP91, SALL4, ZNF654, ZNF787, E4F1, PATZ1) (in words) (IMR-32 proteome; IMR-32): not significantly downregulated
degradation selectivity profile (in words) (IMR-32 proteome; IMR-32, 3h of treatment): AURKA as the only significantly downregulated protein
